Data taken from US4204879A, “Amino acid salts of anionic dyestuffs which have high solubility in organic solvents” (Williams (Hounslow) Limited, priority 1976, dated 1980).

Assay: Maximum concentration of dye giving a solution stable for 24 hours at room temperature (Tables 2 and 3)
Type: physicochemical
Protocol: The solubility values given in these Tables are the maximum concentration of dye in grams/liter giving a solution stable for 24 hours at room temperature.

[1] = Table 2, 24 hours, room temperature, salts of 1:2 chromium complex of 2-amino-4-nitrophenol→3-methyl-1-phenyl-5-pyrazolone

Substance	Solubility in Acetone (acetone, 24 h) [g.1^-1]	Solubility in Ethanol (24 h) [g.1^-1]	Solubility in Ethyl Acetate (ethyl acetate, 24 h) [g.1^-1]	Solubility in Acetone [1] [g.1^-1]	Solubility in Ethyl Acetate [1] [g.1^-1]
N-phenylglycine	> 100	50	100	–	–
iso-tridecylamine	> 500	200	< 50	–	–
2-ethylhexylamine	> 100	30	< 5	–	–
aniline	–	–	–	25	< 5
